According to patent US7223424B2, “Compositions and methods for prostate and kidney health and disorders, an herbal preparation” (Integrated Chinese Medicine Holdings, Ltd., priority 2001, dated 2007):

System: person with enlarged prostate
Experiment: Case report: person with enlarged prostate and frequent urination
Format: in vivo, human
Details: prescribed for enlarged prostate
Description: Person diagnosed with having an enlarged prostate suffered from frequent-urination problems including increased daily frequency and reduced volume. They had the urge to urinate every two hours and the amount was only a few drops. Their symptoms were attributed to old age. […] They are able to urinate what they consider a normal amount of urine in a steady stream as opposed to the dribbling they experienced prior to taking the 9-herb composition. […] Because they are sleeping better, they have more energy throughout the day.

**Q.** Which urination problem does the source give for `CC(C)(C)NC(=O)[C@H]1CC[C@H]2[C@@H]3CC[C@H]4NC(=O)C=C[C@]4(C)[C@H]3CC[C@]12C` [PROSCAR] here?
**A.** The urination problem was “did not alleviate the urination problem”.
